Measured values reported in paper PMC3230598, “Structural Studies of β-Carbonic Anhydrase from the Green Alga Coccomyxa: Inhibitor Complexes with Anions and Acetazolamide” (PLoS ONE, 2011).

Experiments:
Co-CA (Coccomyxa β-CA) = target: T1, Co-CA (Coccomyxa β-CA) (Coccomyxa sp. PA, UniProt Q96554); test: X-ray crystal structure of co-crystal, […] Å; type: binding; settings: 15 mM NaSCN, 1.8 M NaKPO4 pH 7.2; N bound to active-site zinc (2.0 Å); also at dimer interface
T1 construct: zinc enzyme, homotetramer (dimer of dimers); residues 6-227 modelled

[1] = target: the molecule itself; test: crystal structure; Co-CA at ~35 mg/ml in 10 mM Tris-HCl pH 7.4, hanging drop at 18°C, 1.6-2.3 M Na,KPO4 pH 7.2, with acetazolamide, phosphate, thiocyanate, azide or iodide; space group P43212; one dimer in the asymmetric unit, tetramer by a crystallographic 2-fold

| Molecule | X-ray crystal structure of co-crystal, 2.5 Å (Co-CA (Coccomyxa β-CA)) | stoichiometry N [1] |
| --- | --- | --- |
| N#CS [SCN, thiocyanate] | Azide and thiocyanate ions in the active site of Co-CA were clearly defined | – |
| β-carbonic anhydrase from Coccomyxa sp. (enzyme, UniProt Q96554 1-227, looked up, β-carbonic anhydrase of Coccomyxa sp., 227 amino acids, GenBank AAC33484.1; Met-1 to Asp-5 not seen in the electron density, models hold residues 6-227; One zinc ion per monomer; crystallised with acetazolamide, phosphate, thiocyanate, azide or iodide; also called Co-CA; Coccomyxa β-CA; source: E. coli, over-expressed, purified (amylose-resin column, Q-Sepharose Fast Flow)) MSAKDTADLSPLLEANRKWADECAAKDSTYFSKVAGSQAPEYLYIGCADSRVSPAQLFNMAPGEVFVQRNVGNLVSNKDLNCMSCLEYTVDHLKIKHILVCGHYNCGACKAGLVWHPKTAGVTNLWISDVREVRDKNAAKLHGLSADDAWDKMVELNVEAQVFNVCASPIVQAAWARGQPLSVHGIVYTPGTGLVKELIKPITGMEDAGALLRADLKQHCFFSESLA | – | 4 |
